Source: patent US20240066028A1, “COMPOSITIONS FOR IMPROVED DELIVERY OF CGRP INHIBITORS” (Pfizer Ireland Pharmaceuticals, priority 2020, published 2024)
pKi: −log10 of the molar value.

How the values were obtained:
[1] = Phase 2/3 dose-ranging clinical trial of intranasal BHV-3500; assay type: in vivo, human; details: intranasal unit doses 5, 10 and 20 mg; treatment of migraine
[2] = Study BHV3500-107 Cohort 1: zavegepant 50 mg SoftGel QD PK (fasted Days 1-10, fed Days 11-14); assay type: in vivo, humans; details: for Concentration: Cohort 1, 50 mg QD SoftGel, pre-dose
[3] = Study BHV3500-103 Treatment B: PK after 50 mg x 1 SoftGel orally; assay type: in vivo, humans; details: Study 103, 50 mg SoftGel x 1 oral; for AUC(0-t) / AUC(0-inf) / Cmax / Tmax: human, in vivo, po, 50 mg
Experimental: Single-dose: Study BHV3500-103, PK data after 50 mg×1 (2×25 mg) SoftGel administered orally (Treatment B)

[4] = PK exposure from 10 mg intranasal (IN) zavegepant; assay type: in vivo, human; details: 10 mg IN
[5] = female, beagle, dog, in vivo, 50 mg
[6] = target: human CGRP (Homo sapiens, UniProt O60894+Q16602); details: cited from earlier work
human CGRP, sequence (Q16602 23-461): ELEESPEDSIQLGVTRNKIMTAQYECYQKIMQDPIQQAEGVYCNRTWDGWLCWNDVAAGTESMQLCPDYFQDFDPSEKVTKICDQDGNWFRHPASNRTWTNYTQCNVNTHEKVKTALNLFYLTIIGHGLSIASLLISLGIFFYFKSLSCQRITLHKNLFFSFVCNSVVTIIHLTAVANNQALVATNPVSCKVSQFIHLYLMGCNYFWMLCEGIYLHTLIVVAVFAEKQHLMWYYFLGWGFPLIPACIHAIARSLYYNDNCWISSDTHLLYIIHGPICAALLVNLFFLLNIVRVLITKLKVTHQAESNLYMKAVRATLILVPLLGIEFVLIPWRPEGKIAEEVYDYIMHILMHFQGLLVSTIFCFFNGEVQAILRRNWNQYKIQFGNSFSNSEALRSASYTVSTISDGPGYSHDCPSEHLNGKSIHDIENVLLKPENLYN
human CGRP, sequence (O60894 27-148): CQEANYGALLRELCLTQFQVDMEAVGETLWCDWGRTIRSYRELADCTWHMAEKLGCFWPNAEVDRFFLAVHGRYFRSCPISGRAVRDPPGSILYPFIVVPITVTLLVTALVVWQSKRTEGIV

[7] = in vivo; details: female, beagle, dog, 50 mg; for AUC(0-t): AUC0-4 hr
[8] = FAO/WHO report; cited from earlier work
[9] = Cohort 1, Day 10, 50 mg QD SoftGel oral, fasted, multiple dose, Max
[10] = Cohort 1, Day 10, 50 mg QD SoftGel oral, fasted, multiple dose, Min
[11] = Day 14 (with food, moderate fat meal) vs. Day 10 (fasted), 50 mg QD SoftGel
[12] = Study 107, Cohort 1, Day 1, 50 mg SoftGel single dose, fasted

Compound: Cc1cc(C[C@@H](NC(=O)N2CCC(c3cc4ccccc4[nH]c3=O)CC2)C(=O)N2CCN(C3CCN(C)CC3)CC2)cc2cn[nH]c12 [BHV-3500, (R)-N-(3-(7-methyl-1H-indazol-5-yl)-1-(4-(1-methylpiperidin-4-yl)piperazin-1-yl)-1-oxopropan-2-yl)-4-(2-oxo-1,2-dihydroquinolin-3-yl)piperidine-1-carboxamide]
- lowest fully effective dose [1]: 10 mg
- Pre-dose (C0) concentrations ([2]; 50 mg QD SoftGel, Days 1-14): largely below the LLOQ
- Concentration ([2]; Day 6, fasting, Mean): 0.0936 ng/mL
- Concentration ([2]; Day 10, fasting, Max): 8.5 ng/mL
- Concentration ([2]; Day 10, fasting, Mean): 0.0582 ng/mL
- Concentration ([2]; Day 12, moderate fat meal, Mean): 0.0764 ng/mL
- Concentration ([2]; Day 12, moderate fat meal, Min): 0 ng/mL
- Concentration ([2]; Day 14, moderate fat meal, Mean): 0 ng/mL
- Concentration ([2]; Day 14, moderate fat meal, Min): 0 ng/mL
- Cmax ([2]; Cohort 1, Day 1, 50 mg SoftGel oral, fasted, single dose, Max): 13.8 ng/mL
- Residual area ([2]; Cohort 1, Day 1, 50 mg SoftGel oral, fasted, single dose, Median): 8.9%
- Cmax ([2]; Cohort 1, Day 1, 50 mg SoftGel oral, fasted, single dose, Min): 1.42 ng/mL
- Cmax [2, 9]: 46.1 ng/mL
- Tmax [2, 9]: 5 h
- Tmax ([2]; Cohort 1, Day 10, 50 mg QD SoftGel oral, fasted, multiple dose, Mean, listed as Zavegepant): 2.59 h
- Cmax [2, 10]: 2.27 ng/mL
- Tmax [2, 10]: 1.5 h
- Cmax ([2]; Cohort 1, Day 14, 50 mg QD SoftGel oral, fed (moderate fat meal), multiple dose, Max): 3.02 ng/mL
- Tmax ([2]; Cohort 1, Day 14, 50 mg QD SoftGel oral, fed (moderate fat meal), multiple dose, Min): 2.5 h
- decrease in extent of absorption (AUC) with food [2, 11]: ~65%
- decrease in rate of absorption (Cmax) with food [2, 11]: ~72%
- Tmax ([2]; Day 14, fed (moderate fat meal), multiple dose, 50 mg QD SoftGel, statistic not stated, listed as zavegepant): 3.6 h
- AUC0-24, Max [2, 12]: 46.3 ng·h/mL
- AUC0-24, Mean [2, 12]: 19.1 ng·h/mL
- AUC0-24, Min [2, 12]: 4.66 ng·h/mL
- AUCINF_obs, Max [2, 12]: 47.8 ng·h/mL
- AUCINF_obs, Mean [2, 12]: 22.6 ng·h/mL
- AUCINF_obs, Min [2, 12]: 9.54 ng·h/mL
- Cmax, Max [2, 12]: 13.8 ng/mL
- Cmax, Min [2, 12]: 1.42 ng/mL
- HL_Lambda_z, Geometric Mean [2, 12]: 2.48 h
- HL_Lambda_z, Max [2, 12]: 5.07 h
- HL_Lambda_z, Mean [2, 12]: 2.66 h
- HL_Lambda_z, Median [2, 12]: 2.19 h
- HL_Lambda_z, Min [2, 12]: 1.62 h
- Tmax, Max [2, 12]: 5.00 h
- steady state achieved by ([2]; concentrations at 8 hours post-dose, multiple dosing 50 mg QD, fasted state): ≤ 3 days
- Cmax ([2]; human, in vivo, oral, 50 mg, Day 10, steady state, fasting, 50 mg QD SoftGel, statistic not stated, range 2.3 to 46.1, read-out: Cmax): 5.7 ng/mL
- AUC(0-t) ([2]; human, in vivo, oral, 50 mg, Day 10, steady state, fasting, 50 mg QD SoftGel, statistic not stated, range 6.7 to 75.4, read-out: AUC0-24): 20.4 ng·h/mL
- Tmax ([2]; human, in vivo, oral, 50 mg, Day 10, steady state, fasting, 50 mg QD SoftGel, statistic not stated, read-out: Tmax): 2 h
- Tmax ([2]; human, in vivo, oral, 50 mg, Day 14, fed (moderate fat meal), multiple dose, 50 mg QD SoftGel, statistic not stated, read-out: Tmax): 4 h
- Cmax ([2]; human, in vivo, oral, 50 mg, Day 14, fed (moderate fat meal), 50 mg QD SoftGel, statistic not stated, range 1.0 to 3.0, read-out: Cmax): 1.6 ng/mL
- AUC(0-t) ([2]; human, in vivo, oral, 50 mg, Day 14, fed (moderate fat meal), 50 mg QD SoftGel, statistic not stated, range 3.7 to 16.6, read-out: AUC0-24): 7.3 ng·h/mL
- AUC(0-t) ([2]; human, in vivo, oral, 50 mg, Study 107, Cohort 1, Day 1, 50 mg SoftGel single dose, fasted, read-out: AUC0-24, Geometric Mean): 15.8 ng·h/mL
- AUC(0-t) ([2]; human, in vivo, oral, 50 mg, Study 107, Cohort 1, Day 1, 50 mg SoftGel single dose, fasted, read-out: AUC0-24, Median): 16.7 ng·h/mL
- AUC(0-inf) ([2]; human, in vivo, oral, 50 mg, Study 107, Cohort 1, Day 1, 50 mg SoftGel single dose, fasted, read-out: AUCINF_obs, Geometric Mean): 20 ng·h/mL
- AUC(0-inf) ([2]; human, in vivo, oral, 50 mg, Study 107, Cohort 1, Day 1, 50 mg SoftGel single dose, fasted, read-out: AUCINF_obs, Median): 20.6 ng·h/mL
- Cmax ([2]; human, in vivo, oral, 50 mg, Study 107, Cohort 1, Day 1, 50 mg SoftGel single dose, fasted, read-out: Cmax, Geometric Mean): 5.3 ng/mL
- Cmax ([2]; human, in vivo, oral, 50 mg, Study 107, Cohort 1, Day 1, 50 mg SoftGel single dose, fasted, read-out: Cmax, Mean): 6.32 ng/mL
- Cmax ([2]; human, in vivo, oral, 50 mg, Study 107, Cohort 1, Day 1, 50 mg SoftGel single dose, fasted, read-out: Cmax, Median): 5.73 ng/mL
- Tmax ([2]; human, in vivo, oral, 50 mg, Study 107, Cohort 1, Day 1, 50 mg SoftGel single dose, fasted, read-out: Tmax, Geometric Mean): 2.18 h
- Tmax ([2]; human, in vivo, oral, 50 mg, Study 107, Cohort 1, Day 1, 50 mg SoftGel single dose, fasted, read-out: Tmax, Mean): 2.42 h
- Tmax ([2]; human, in vivo, oral, 50 mg, Study 107, Cohort 1, Day 1, 50 mg SoftGel single dose, fasted, read-out: Tmax, Median): 2.25 h
- Tmax ([2]; human, in vivo, po, 50 mg, Cohort 1, Day 1, 50 mg SoftGel oral, fasted, single dose, Geometric Mean, read-out: Tmax): 2.18 h
- Cmax ([2]; human, in vivo, po, 50 mg, Cohort 1, Day 1, 50 mg SoftGel oral, fasted, single dose, Mean, read-out: Cmax): 6.32 ng/mL
- Tmax ([2]; human, in vivo, po, 50 mg, Cohort 1, Day 1, 50 mg SoftGel oral, fasted, single dose, Mean, read-out: Tmax): 2.42 h
- Cmax ([2]; human, in vivo, po, 50 mg, Cohort 1, Day 1, 50 mg SoftGel oral, fasted, single dose, Median, read-out: Cmax): 6.78 ng/mL
- Tmax ([2]; human, in vivo, po, 50 mg, Cohort 1, Day 1, 50 mg SoftGel oral, fasted, single dose, Median, read-out: Tmax): 2.25 h
- Tmax ([2]; human, in vivo, po, 50 mg, Cohort 1, Day 10, 50 mg QD SoftGel oral, fasted, multiple dose, Geometric Mean, read-out: Tmax): 2.35 h
- Cmax ([2]; human, in vivo, po, 50 mg, Cohort 1, Day 10, 50 mg QD SoftGel oral, fasted, multiple dose, Mean, read-out: Cmax): 9.71 ng/mL
- Tmax ([2]; human, in vivo, po, 50 mg, Cohort 1, Day 10, 50 mg QD SoftGel oral, fasted, multiple dose, Mean, read-out: Tmax): 2.69 h
- Cmax ([2]; human, in vivo, po, 50 mg, Cohort 1, Day 10, 50 mg QD SoftGel oral, fasted, multiple dose, Median, read-out: Cmax): 4.7 ng/mL
- Tmax ([2]; human, in vivo, po, 50 mg, Cohort 1, Day 10, 50 mg QD SoftGel oral, fasted, multiple dose, Median, read-out: Tmax): 2 h
- Cmax ([2]; human, in vivo, po, 50 mg, Cohort 1, Day 14, 50 mg QD SoftGel oral, fed (moderate fat meal), multiple dose, Geometric Mean, read-out: Cmax): 1.62 ng/mL
- Tmax ([2]; human, in vivo, po, 50 mg, Cohort 1, Day 14, 50 mg QD SoftGel oral, fed (moderate fat meal), multiple dose, Geometric Mean, read-out: Tmax): 3.63 h
- Tmax ([2]; human, in vivo, po, 50 mg, Cohort 1, Day 14, 50 mg QD SoftGel oral, fed (moderate fat meal), multiple dose, Mean, read-out: Tmax): 3.78 h
- Cmax ([2]; human, in vivo, po, 50 mg, Cohort 1, Day 14, 50 mg QD SoftGel oral, fed (moderate fat meal), multiple dose, Median, read-out: Cmax): 1.48 ng/mL
- AUC0-24, Max [3]: 59.0 ng·h/mL
- AUCINF_obs, Max [3]: 60.1 ng·h/mL
- AUCINF_obs, Min [3]: 9.21 ng·h/mL
- Cmax, Max [3]: 26.8 ng/mL
- Cmax, Min [3]: 1.86 ng/mL
- HL_Lambda_z, Geometric Mean [3]: 2.17 h
- HL_Lambda_z, Max [3]: 4.74 h
- HL_Lambda_z, Mean [3]: 2.28 h
- HL_Lambda_z, Median [3]: 1.98 h
- HL_Lambda_z, Min [3]: 1.48 h
- Tmax, Min [3]: 0.500 h
- AUC(0-t) ([3]; read-out: AUC0-24, Geometric Mean): 21 ng·h/mL
- AUC(0-t) ([3]; read-out: AUC0-24, Mean): 25.3 ng·h/mL
- AUC(0-t) ([3]; read-out: AUC0-24, Median): 18.8 ng·h/mL
- AUC(0-inf) ([3]; read-out: AUCINF_obs, Geometric Mean): 21.5 ng·h/mL
- AUC(0-inf) ([3]; read-out: AUCINF_obs, Mean): 25.8 ng·h/mL
- AUC(0-inf) ([3]; read-out: AUCINF_obs, Median): 19.1 ng·h/mL
- Cmax ([3]; read-out: Cmax, Geometric Mean): 7.6 ng/mL
- Cmax ([3]; read-out: Cmax, Mean): 10.8 ng/mL
- Cmax ([3]; read-out: Cmax, Median): 7.06 ng/mL
- Tmax ([3]; read-out: Tmax, Geometric Mean): 1.65 h
- Tmax ([3]; read-out: Tmax, Mean): 1.98 h
- Tmax ([3]; read-out: Tmax, Median): 1.75 h
- AUC [4]: 33.0 ng·h/mL
- AUC0-4 hr, Median/Average [5]: 44.4 ng·h/mL
- Cmax, Median/Average [5]: 31.7 ng/mL
- Tmax, Median/Average [5]: 0.5 h
- t1/2, Median/Average [5]: 0.71 h
- pKi [6]: 10.64
- AUC(0-t) [7]: 40.3 ng·h/mL
- AUC(0-t) ([7]; Median/Average): 55.1 ng·h/mL
- Cmax ([7]; Cmax, Median/Average): 37 ng/mL
- Tmax ([7]; Tmax, Median/Average): 1 h
- half-life ([7]; t1/2): 0.54 h
- half-life ([7]; t1/2, Median/Average): 0.77 h

Compound: sucrose dodecanoate
- NOAEL [8]: 20-30 grams/kilogram/day
